Measurements as given in patent US20210355105A1, “REGULATOR OF NITROGEN-CONTAINING HETEROAROMATIC DERIVATIVES, PREPARATION METHOD THEREFOR AND USE THEREOF” (Jiangsu Hansoh Pharmaceutical Group Co., Ltd., priority 2018, published 2021).

Tests used:
[1] = Pharmacokinetics assay in rats, single intravenous injection; assay type: in vivo; details: male SD rats
Protocol: SD rats were used as test animals.
The solution was subjected to ultrasound to obtain a clear solution. The solution was filtered with a 0.22 μm water filter, and the filtrate was the formulation for intravenous administration (i.v.). The concentration was 0.2 mg/mL.
After an overnight fast, male SD rats (3 rats per group) were administered intravenously with the test compounds at an administration dose of 1 mg/kg and an administration volume of 5 mL/kg.
0.2 mL of blood was taken from jugular vein before administration and at 0 minute, 5 minutes, 15 minutes, 0.5 hour, 1.0 hour, 2.0 hours, 4.0 hours, 8.0 hours and 24.0 hours after administration. The blood samples were stored in EDTA-2K tubes, and centrifuged for 6 minutes at 6000 rpm, at 4° C. to separate the blood plasma. The plasma samples were stored at −80° C. The rats were fed four hours after administration.

[2] = Pharmacokinetics assay in MiaPaca 2 tumor-bearing mice (plasma, tumor tissue, intestine); assay type: in vivo; details: female, mouse, oral 6 mg/kg
Protocol: MiaPaca 2 tumor-bearing mice were used as test animals.
Twenty-four female MiaPaca 2 tumor-bearing mice were used. Three mice were used for each time point (0 hour, 1 hour, 2 hours, 4 hours, 6 hours, 8 hours, 16 hours and 24 hours). The mice were purchased from Shanghai Sippr-BK laboratory animal Co. Ltd., with Certificate No.: SCXK (Shanghai) 2018-0006.
The solution was shaked well, and subjected to ultrasound for 15 minutes to obtain a uniform suspension with a concentration of 0.6 mg/mL.
After fast, MiaPaca 2 tumor-bearing mice were administered orally (p.o.) with the test compound according to body weight at an administration dose of 6 mg/kg and an administration volume of 10 mL/kg (the animals were not administered with the test compound on 0 hour).
The mice were euthanized by CO2 before administration and after administration, and 0.5 mL of blood was taken from heart. The blood samples were stored in EDTA-2K tubes, and centrifuged for 6 minutes at 6000 rpm, at 4° C. to separate the blood plasma. The plasma samples were stored at −80° C. The tumor tissue was weighed, placed in a 2 mL centrifuge tube, and stored at −80° C. An appropriate length of duodenum, ileum and colon tissues were taken and cut open with scissors, and the contents were removed. The above tissues were washed with PBS twice, and the moisture was absorbed with absorbent paper. The tissues were weighed, placed in a 2 mL centrifuge tube, and stored at −80° C.

An F ([1]; printed in the i.v. 1 mg/kg table) of 118%, an AUC(0-inf) ([1]; rat, iv, i.v. 1 mg/kg, plasma) of 613 ng·h/mL and a C0 ([1]; rat, iv, i.v. 1 mg/kg, plasma) of 311 ng/mL were found for `Nc1nc(N2CCC3(CC2)Cc2ccccc2[C@H]3N)c(F)nc1Sc1ccnc(N)c1Cl` [Example 179, (S)-1′-(6-amino-5-((2-amino-3-chloropyridin-4-yl)thio)-3-fluoropyrazin-2-yl)-1,3-dihydrospiro[indene-2,4′-piperidin]-1-amine] in this work. For the same compound, the MRT ([1]; rat, iv, i.v. 1 mg/kg, plasma) was 4.26 h, the clearance ([1]; rat, iv, i.v. 1 mg/kg, plasma) was 27.2 mL/min/kg and the half-life ([1]; rat, iv, i.v. 1 mg/kg, plasma) was 201 min. The Vd ([1]; rat, iv, i.v. 1 mg/kg, plasma, read-out: Vss) was 7 L/kg, the AUC(0-inf) ([2]; Colon) was 9180 ng·h/mL and the Cmax ([2]; Colon) was 1310 ng/mL. The MRT ([2]; Colon) was 5.8 h, the Tmax ([2]; Colon) was 4 h and the half-life ([2]; Colon) was 168 min. The AUC(0-inf) ([2]; Duodenum) was 16300 ng·h/mL, the Cmax ([2]; Duodenum) was 5420 ng/mL and the MRT ([2]; Duodenum) was 4.8 h. The Tmax ([2]; Duodenum) was 1 h, the half-life ([2]; Duodenum) was 288 min and the AUC(0-inf) ([2]; Ileum) was 10000 ng·h/mL. For the same compound, the Cmax ([2]; Ileum) was 1930 ng/mL, the MRT ([2]; Ileum) was 6.1 h and the Tmax ([2]; Ileum) was 2 h. It also gave a half-life ([2]; Ileum) of 318 min, an AUC(0-inf) ([2]; Plasma) of 2860 ng·h/mL and a Cmax ([2]; Plasma) of 386 ng/mL. It also gave an MRT ([2]; Plasma) of 7.5 h, a Tmax ([2]; Plasma) of 1 h and a half-life ([2]; Plasma) of 288 min. It also gave an AUC(0-inf) ([2]; Tumor) of 51800 ng·h/mL, a Cmax ([2]; Tumor) of 2390 ng/mL and an MRT ([2]; Tumor) of 19.1 h. For the same compound, the Tmax ([2]; Tumor) was 8 h and the half-life ([2]; Tumor) was 690 min.
